Values of other authors, collected in PMC13515262 (Molecules, 2026).

Target: T1, AChE (Electrophorus electricus, UniProt O42275)
T1 construct: The reaction was carried out using AChE serum obtained from the electric eel; from tissue; host or cells: 'serum' of the electric eel (so in the source)
Conditions: ref 39 (CAPE), 35 (Spiraeoside), 43 (olivetol), 36 (Vescalagin), 34 (Magnofluorine), 40 (taxifolin), 33 (coumestrol); read-out: Ki AChE (literature)

T1 sequence (O42275 24-633): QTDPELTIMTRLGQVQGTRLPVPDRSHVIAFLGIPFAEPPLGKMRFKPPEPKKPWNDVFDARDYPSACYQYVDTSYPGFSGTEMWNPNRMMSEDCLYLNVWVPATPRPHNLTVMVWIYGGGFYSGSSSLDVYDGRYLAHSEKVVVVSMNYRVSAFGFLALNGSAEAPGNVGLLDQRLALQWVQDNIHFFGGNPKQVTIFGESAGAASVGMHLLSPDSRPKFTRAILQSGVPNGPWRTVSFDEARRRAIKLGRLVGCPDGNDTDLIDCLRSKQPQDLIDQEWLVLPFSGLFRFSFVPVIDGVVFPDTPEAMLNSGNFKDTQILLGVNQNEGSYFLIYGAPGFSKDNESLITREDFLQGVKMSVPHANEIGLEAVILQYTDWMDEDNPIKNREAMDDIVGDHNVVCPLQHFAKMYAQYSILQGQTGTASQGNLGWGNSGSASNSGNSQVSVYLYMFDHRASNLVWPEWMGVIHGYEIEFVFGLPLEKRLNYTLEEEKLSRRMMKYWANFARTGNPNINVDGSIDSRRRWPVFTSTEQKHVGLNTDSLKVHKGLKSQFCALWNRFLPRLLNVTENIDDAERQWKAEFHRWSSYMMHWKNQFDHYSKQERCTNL

SMILES	Ki [nM]
O=C(/C=C/c1ccc(O)c(O)c1)OCCc1ccccc1 [CAPE, caffeic acid phenethyl ester]	0.518
O=c1c(O)c(-c2ccc(O[C@@H]3O[C@H](CO)[C@@H](O)[C@H](O)[C@H]3O)c(O)c2)oc2cc(O)cc(O)c12 [Spiraeoside]	3.4
